Laboratory results reported in patent US6646137B1, “Non-peptide GnRH agents” (priority 1998, dated 2003).
Where two headings read alike, the source gives them in different places.

Molecular target: T1, human GnRH receptor (Homo sapiens, UniProt P30968)
T1 construct: The cDNA for the human GnRH receptor is cloned into the plasmid expression vector, pcDNA 3; expressed in transfected cells; host or cells: HEK 293 cells, stably transfected (pcDNA 3); membrane preparation
T1 sequence (P30968 1-328): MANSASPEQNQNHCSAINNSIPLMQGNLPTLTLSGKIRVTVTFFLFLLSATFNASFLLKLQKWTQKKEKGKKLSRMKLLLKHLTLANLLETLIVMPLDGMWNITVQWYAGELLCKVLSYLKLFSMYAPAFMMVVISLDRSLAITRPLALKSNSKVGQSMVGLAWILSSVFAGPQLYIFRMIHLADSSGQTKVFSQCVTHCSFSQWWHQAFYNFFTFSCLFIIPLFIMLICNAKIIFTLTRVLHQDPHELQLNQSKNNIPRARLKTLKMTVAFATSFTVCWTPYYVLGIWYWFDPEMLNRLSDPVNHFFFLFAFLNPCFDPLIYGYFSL
Assay: GnRH receptor competitive radioligand binding assay (125I-GnRH-A, HEK 293 cell membranes)
Conditions: compound at 10 μM
Outline: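 Membranes from HEK 293 cells stably expressing human GnRH receptor (0.5–1.0 mg/mL) incubated 1 h at room temperature with ~0.05–0.1 nM 125I-GnRH-A plus competitor in 50 mM HEPES pH 7.4, 1 mM EDTA, 2.5 mM MgCl2, 0.1% BSA. Bound label collected by filtration onto PEI-soaked filters and counted by scintillation.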

[1] = average of 1st and 2nd test, read-out: Average % Remaining (percent of specific binding remaining)
[2] = crude compounds, 125I-GnRH-A, lower value = higher inhibition, read-out: % Remaining 1st Test (percent of specific binding remaining)
[3] = crude compounds, 125I-GnRH-A, lower value = higher inhibition, read-out: % Remaining 2nd Test (percent of specific binding remaining)

remaining activity at 10 µM [1] [%]	remaining activity at 10 µM [2] [%]	remaining activity at 10 µM [3] [%]	SMILES
57	61	52	CCOC(=O)C(=O)N(Cc1cc2c(cc1C)C(C)(C)CCC2(C)C)CC1CCC(CNC(=N)N)CC1 (stereo not drawn) [Compound 94]
57	59	54	CCCCC(CC)C(=O)N(Cc1cc2c(cc1C)C(C)(C)CCC2(C)C)CC1CCC(CNC(=N)N)CC1 (stereo not drawn) [Compound 117]
57	57	57	CC(=O)O[C@@H](C)C(=O)N(Cc1cc2c(cc1C)C(C)(C)CCC2(C)C)CC1CCC(CNC(=N)N)CC1 (stereo partly drawn) [Compound 119]

Continued, compound first:

SMILES	remaining activity at 10 µM [1] [%]	remaining activity at 10 µM [2] [%]	remaining activity at 10 µM [3] [%]
CCCCN(CCCC)c1ccc(CN(CC2CCC(CNC(=N)N)CC2)C(=O)c2ccco2)cc1 (stereo not drawn) [Compound 88]	57	58	56
Cc1cc2c(cc1CN(CC1CCC(CNC(=N)N)CC1)C(=O)c1c(C)noc1C)C(C)(C)CCC2(C)C (stereo not drawn) [Compound 96]	52	44	60
Cc1cc2c(cc1CN(CC1CCC(CNC(=N)N)CC1)C(=O)c1ccc(C#N)cc1)C(C)(C)CCC2(C)C (stereo not drawn) [Compound 98]	58	58	58
COC(=O)CCCCCC(=O)N(Cc1cc2c(cc1C)C(C)(C)CCC2(C)C)CC1CCC(CNC(=N)N)CC1 (stereo not drawn) [Compound 100]	55	52	58
Cc1cc2c(cc1CN(CC1CCC(CNC(=N)N)CC1)C(=O)Cc1ccccc1)C(C)(C)CCC2(C)C (stereo not drawn) [Compound 102]	60	66	54
Cc1cc(C(=O)N(Cc2cc3c(cc2C)C(C)(C)CCC3(C)C)CC2CCC(CNC(=N)N)CC2)n(C(C)(C)C)n1 (stereo not drawn) [Compound 105]	56	56	56
Cc1cc2c(cc1CN(CC1CCC(CNC(=N)N)CC1)C(=O)c1cnn(-c3ccccc3)c1C(F)(F)F)C(C)(C)CCC2(C)C (stereo not drawn) [Compound 118]	60	62	58
